Target: T1, hα4 and β1 integrins (Homo sapiens, UniProt P05556+P13612)
T1 construct: expressed in transfected cells; host or cells: CHO cells
Test: In vitro inhibition of binding between CHO cells expressing hα4 and β1 integrins and Eu3+-hVCAM-1 D1D7-IgG
Settings: for Ki: CHO cells expressing hα4 and β1 integrins, Eu3+-hVCAM-1 D1D7-IgG ligand, without HSA; for IC50: in the presence of 3% human serum albumin (HSA final concentration 3%)
Procedure: CHO cells which forcibly expressed hα4 and β1 integrins through transfection thereof, were inoculated into a Costar 3599 plate (3×10^4 cells/100 μl/well), and cultured for two days. The cells in the wells were washed two times with buffer A*, and then Eu^3+-hVCAM-1 D1D7-IgG diluted with assay buffer** to 2 nM was added in an amount of 50 μl/well. The substance under test diluted with 26 DMSO-assay buffer (in the co-presence or absence of 6% human serum albumin) was added in an amount of 50 μl/well (adding separately diluted solution to the wells for performing Scatchard analysis), the contents were stirred for 5 minutes with a plate mixer, and then the plate was left to stand still for one hour at room temperature. The binding inhibitory activity in the presence of human serum albumin (HSA) was examined by diluting the specimen with 26 DMSO-assay buffer containing 6% HSA (SIGMA Corp., c/n A-1653), and adding the resultant (HSA final concentration 3%). After 30 to 60 minutes of the addition of specimen, the plate contents were washed 4 times with buffer A at 4° C., an enhancing reagent (DELFIA SA) was added in an amount of 100 μl/well, and the plate was shaken for 5 minutes using a plate mixer. Subsequently, the fluorescence intensity was measured with a time-resolved fluorometer (DELFIA Wallac). The IC50 of the substance under test (the concentration for 50% inhibition of the binding between CHO cells and Eu^3+-hVCAM-1 D1D7-IgG) was determined from the binding rate obtained from the calculating expression of [(FT−FNS)−(FI−FNS)]/[(FT−FNS)]×100. Here, FT represents the fluorescence intensity of a well not containing the substance under test; FNS represents the fluorescence intensity of a well not containing the substance under test and hVCAM-1 D1D7-IgG; and FI represents the fluorescence intensity of a well containing the substance under test. The Kd value which represents the strength of binding, and Bmax (maximum binding amount) were estimated to be in the range of 0.06 to 20 nM according to the Scatchard analysis method. The evaluation results of the Ki value of the substance under test, and of the IC50 value in the presence of 3% HSA are presented in Tables 2 to 7.
The Ki value was calculated according to the above-described expression. ([L] is the ligand concentration)
[* buffer A: 25 mM HEPES (pH 7.5), 150 mM NaCl, 1 mM Ca^2+, 1 mM Mg^2+, 4 mM Mn2+;
** assay buffer: 25 mM HEPES (pH=7.5), 150 mM NaCl, 1 mM Ca^2+, 1 mM Mg^2+, 4 mM Mn^2+, 0.1% BSA, 20 μM DTPA, with/without 6% ALBUMIN, HUMAN SERUM (C/N A-1653, SIGMA)]

T1 sequence (P13612 34-1032): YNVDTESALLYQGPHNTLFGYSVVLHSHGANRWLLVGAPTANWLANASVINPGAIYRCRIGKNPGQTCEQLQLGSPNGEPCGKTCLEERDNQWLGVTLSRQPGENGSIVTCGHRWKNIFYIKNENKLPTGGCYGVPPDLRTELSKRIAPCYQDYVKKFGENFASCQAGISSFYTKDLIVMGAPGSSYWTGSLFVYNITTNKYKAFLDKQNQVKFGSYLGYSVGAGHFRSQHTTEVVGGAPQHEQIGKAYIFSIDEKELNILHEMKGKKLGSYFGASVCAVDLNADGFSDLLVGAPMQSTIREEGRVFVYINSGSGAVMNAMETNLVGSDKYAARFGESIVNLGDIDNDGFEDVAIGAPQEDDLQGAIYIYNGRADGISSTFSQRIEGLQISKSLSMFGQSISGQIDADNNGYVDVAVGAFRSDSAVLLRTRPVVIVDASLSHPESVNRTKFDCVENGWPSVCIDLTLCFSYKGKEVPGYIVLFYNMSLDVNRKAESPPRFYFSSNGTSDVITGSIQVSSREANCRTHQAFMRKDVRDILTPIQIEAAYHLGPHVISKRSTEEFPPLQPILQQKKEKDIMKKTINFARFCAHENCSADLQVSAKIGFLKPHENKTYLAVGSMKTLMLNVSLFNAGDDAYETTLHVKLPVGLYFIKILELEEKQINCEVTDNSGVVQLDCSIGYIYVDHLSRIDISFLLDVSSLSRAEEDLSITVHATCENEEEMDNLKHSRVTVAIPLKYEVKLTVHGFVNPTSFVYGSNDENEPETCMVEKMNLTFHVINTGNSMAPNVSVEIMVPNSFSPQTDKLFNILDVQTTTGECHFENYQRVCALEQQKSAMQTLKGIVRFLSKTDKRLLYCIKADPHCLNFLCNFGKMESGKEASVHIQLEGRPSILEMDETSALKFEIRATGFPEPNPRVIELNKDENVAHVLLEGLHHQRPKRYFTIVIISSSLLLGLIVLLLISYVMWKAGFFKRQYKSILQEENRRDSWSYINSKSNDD
T1 sequence (P05556 21-798): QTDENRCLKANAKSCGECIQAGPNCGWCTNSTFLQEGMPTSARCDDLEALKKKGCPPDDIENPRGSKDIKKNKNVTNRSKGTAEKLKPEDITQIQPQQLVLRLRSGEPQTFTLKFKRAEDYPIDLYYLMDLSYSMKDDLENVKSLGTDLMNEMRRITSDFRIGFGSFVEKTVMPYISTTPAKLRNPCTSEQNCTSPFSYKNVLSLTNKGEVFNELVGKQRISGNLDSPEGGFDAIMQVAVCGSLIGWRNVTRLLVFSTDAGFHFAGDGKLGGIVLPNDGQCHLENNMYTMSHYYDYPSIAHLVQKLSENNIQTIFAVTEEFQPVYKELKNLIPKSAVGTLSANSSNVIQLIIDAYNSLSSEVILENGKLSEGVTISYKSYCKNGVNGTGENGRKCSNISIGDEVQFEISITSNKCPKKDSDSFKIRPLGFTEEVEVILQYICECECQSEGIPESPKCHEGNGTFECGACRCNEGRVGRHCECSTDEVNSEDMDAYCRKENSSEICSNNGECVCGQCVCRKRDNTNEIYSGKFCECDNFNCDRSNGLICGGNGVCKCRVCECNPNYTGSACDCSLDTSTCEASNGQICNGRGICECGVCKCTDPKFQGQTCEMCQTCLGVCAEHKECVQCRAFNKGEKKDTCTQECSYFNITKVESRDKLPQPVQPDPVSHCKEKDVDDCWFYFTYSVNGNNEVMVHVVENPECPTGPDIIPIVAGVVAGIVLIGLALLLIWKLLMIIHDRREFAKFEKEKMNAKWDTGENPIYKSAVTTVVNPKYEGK

Row | Structure (SMILES) | Ki | IC50
1 | COC1CCN([C@H]2C[C@@H](CC[C@H]3CC[C@H](C(=O)O)CC3)N(C(=O)Cc3cc(Cl)c(NC(=O)c4cn(C)c5ccccc45)cc3Cl)C2)CC1 [Example 104, Trans-4-[2-[1-[[2,5-dichloro-4-[(1-methyl-1H-indol-3-ylcarbonyl)amino]phenyl]acetyl]-(4S)-(4-methoxypiperidin-1-yl)-(2S)-pyrrolidinyl]ethyl]cyclohexanecarboxylic acid] | 4.9 nM | 13 nM
2 | O=C(Nc1cc(Cl)c(CC(=O)N2C[C@@H](N3CCN(C4CC4)CC3)C[C@H]2CO[C@H]2CC[C@H](C(=O)O)CC2)cc1Cl)c1csc2ccccc12 [Example 138, Trans-4-[1-[[4-[(benzo[b]thiophen-3-ylcarbonyl)amino]-2,5-dichlorophenyl]acetyl]-(4S)-(4-cyclopropylpiperazin-1-yl)-(2S)-pyrrolidinylmethoxy]cyclohexanecarboxylic acid] | 0.91 nM | 7.7 nM
3 | C[C@@H]1CN([C@H]2C[C@@H](CO[C@H]3CC[C@H](C(=O)O)CC3)N(C(=O)Cc3cc(Cl)c(NC(=O)c4coc5ccccc45)cc3F)C2)C[C@H](C)O1 [Example 84, Trans-4-[1-[[4-[(benzo[b]furan-3-ylcarbonyl)amino]-5-chloro-2-fluorophenyl]acetyl]-(4S)-(cis-2,6-dimethylmorpholin-4-yl)-(2S)-pyrrolidinylmethoxy]cyclohexanecarboxylic acid] | 2.4 nM | 23 nM
4 | COC[C@@H]1C[C@H](F)CN1[C@H]1C[C@@H](CO[C@H]2CC[C@H](C(=O)O)CC2)N(C(=O)Cc2cc(Cl)c(NC(=O)c3cn(C)c4ccccc34)cc2Cl)C1 [Example 45, Trans-4-[1-[[2,5-dichloro-4-[(1-methyl-1H-indol-3-ylcarbonyl)amino]phenyl]acetyl]-(4S)-[(4S)-fluoro-(2S)-methoxymethylpyrrolidin-1-yl]-(2S)-pyrrolidinylmethoxy]cyclohexane carboxylic acid] | 14 nM | 15 nM
5 | CN1CCN([C@H]2C[C@@H](CO[C@H]3CC[C@H](C(=O)O)CC3)N(C(=O)Cc3cc(Cl)c(NC(=O)c4csc5ccccc45)cc3Cl)C2)CC1=O [Example 153, Trans-4-[1-[[4-[(benzo[b]thiophen-3-ylcarbonyl)amino]-2,5-dichlorophenyl]acetyl]-(4S)-(4-methyl-3-oxopiperazin-1-yl)-(2S)-pyrrolidinylmethoxy]cyclohexanecarboxylic acid] | 1.5 nM | 9.3 nM
6 | C[C@@H]1COC[C@H](C)N1[C@H]1C[C@@H](CO[C@H]2CC[C@H](C(=O)O)CC2)N(C(=O)Cc2cc(Cl)c(NC(=O)c3cn(C)c4ccccc34)cc2Cl)C1 [Example 93, Trans-4-[1-[[2,5-dichloro-4-[(1-methyl-1H-indol-3-ylcarbonyl)amino]phenyl]acetyl]-(4S)-(cis-3,5-dimethylmorpholin-4-yl)-(2S)-pyrrolidinylmethoxy]cyclohexanecarboxylic acid] | 3.6 nM | 22 nM
7 | O=C(Nc1cc(F)c(CC(=O)N2C[C@@H](N3C[C@@H]4CS(=O)(=O)C[C@@H]4C3)C[C@H]2CO[C@H]2CC[C@H](C(=O)O)CC2)cc1Cl)c1coc2ccccc12 [Example 77, Trans-4-[1-[[4-[(benzo[b]furan-3-ylcarbonyl)amino]-5-chloro-2-fluorophenyl]acetyl]-(4S)-[(3a,6a-cis)-hexahydro-2,2-dioxo-2λ^6-thieno[3,4-c]pyrrol-5-yl]-(2S)-pyrrolidinylmethoxy]cyclohexanecarboxylic acid] | 2 nM | 4.1 nM
8 | Cn1cc(C(=O)Nc2cc(F)c(CC(=O)N3C[C@@H](N4CCS(=O)(=O)CC4)C[C@H]3CO[C@H]3CC[C@H](C(=O)O)CC3)cc2Cl)c2ccccc21 [Example 160, Trans-4-[1-[[5-chloro-2-fluoro-4-[(1-methyl-1H-indol-3-ylcarbonyl)amino]phenyl]acetyl]-(4S)-(1,1-dioxo-1λ^6-thiomorpholin-4-yl)-(2S)-pyrrolidinylmethoxy]cyclohexanecarboxylic acid] | 2.4 nM | 9.9 nM
9 | O=C(Nc1cc(F)c(CC(=O)N2C[C@@H](N3C[C@H]4C[C@H]4C3)C[C@H]2CO[C@H]2CC[C@H](C(=O)O)CC2)cc1Cl)c1csc2ccccc12 [Example 71, Trans-4-[1-[[4-[(benzo[b]thiophen-3-ylcarbonyl)amino]-5-chloro-2-fluorophenyl]acetyl]-(4S)-[3-azabicyclo[3.1.0]hexan-3-yl]-(2S)-pyrrolidinylmethoxy]cyclohexanecarboxylic acid] | 7.5 nM | 28 nM
10 | Cn1cc(C(=O)Nc2cc(F)c(CC(=O)N3C[C@@H](N4CCN(C5(C)CC5)CC4)C[C@H]3CO[C@H]3CC[C@H](C(=O)O)CC3)cc2Cl)c2ccccc21 [Example 141, Trans-4-[1-[[5-chloro-2-fluoro-4-[(1-methyl-1H-indol-3-ylcarbonyl)amino]phenyl]acetyl]-(4S)-[4-(1-methylcyclopropan-1-yl)piperazin-1-yl]-(2S)-pyrrolidinylmethoxy]cyclohexa necarboxylic acid] | 6.3 nM | 23 nM
11 | COC1(C)CN([C@H]2C[C@@H](CO[C@H]3CC[C@H](C(=O)O)CC3)N(C(=O)Cc3cc(Cl)c(NC(=O)c4cn(C)c5ccccc45)cc3F)C2)C1 [Example 16, Trans-4-[1-[[5-chloro-2-fluoro-4-[(1-methyl-1H-indol-3-ylcarbonyl)amino]phenyl]acetyl]-(4S)-(3-methoxy-3-methylazetidin-1-yl)-(2S)-pyrrolidinylmethoxy]cyclohexanecarboxylic acid] | 5.3 nM | 41 nM
12 | O=C(Nc1cc(F)c(CC(=O)N2C[C@@H](N3CCC(Oc4ccccc4)CC3)C[C@H]2CO[C@H]2CC[C@H](C(=O)O)CC2)cc1Cl)c1csc2ccccc12 [Example 102] | 1.2 nM | 33 nM
13 | O=C(Nc1ccc(CC(=O)N2C[C@@H](N3CCN(CC(F)(F)F)CC3)C[C@H]2CO[C@H]2CC[C@H](C(=O)O)CC2)cc1Cl)c1coc2ccccc12 [Example 132, Trans-4-[1-[[4-[(benzo[b]furan-3-ylcarbonyl)amino]-3-chlorophenyl]acetyl]-(4S)-[4-(2,2,2-trifluoroethyl)piperazin-1-yl]-(2S)-pyrrolidinylmethoxy]cyclohexanecarboxylic acid] | 1.7 nM | 4 nM
14 | Cn1cc(C(=O)Nc2cc(F)c(CC(=O)N3C[C@@H](N4CCN(CC(F)F)CC4)C[C@H]3CO[C@H]3CC[C@H](C(=O)O)CC3)cc2Cl)c2ccccc21 [Example 121, Trans-4-[1-[[5-chloro-2-fluoro-4-[(1-methyl-1H-indol-3-ylcarbonyl)amino]phenyl]acetyl]-(4S)-[4-(2,2-difluoroethyl)piperazin-1-yl]-(2S)-pyrrolidinylmethoxy]cyclohexanecarboxylic acid] | 3.2 nM | 11 nM
15 | O=C(Nc1cc(Cl)c(CC(=O)N2C[C@@H](N3CCCOCC3)C[C@H]2CO[C@H]2CC[C@H](C(=O)O)CC2)cc1Cl)c1coc2ccccc12 [Example 167, Trans-4-[1-[[4-[(benzo[b]furan-3-ylcarbonyl)amino]-2,5-dichlorophenyl]acetyl]-(4S)-([1,4]-oxazepan-4-yl)-(2S)-pyrrolidinylmethoxy]cyclohexanecarboxylic acid] | 4.4 nM | 19 nM
16 | CC1CCCN1[C@H]1C[C@@H](CO[C@H]2CC[C@H](C(=O)O)CC2)N(C(=O)Cc2cc(Cl)c(NC(=O)c3csc4ccccc34)cc2F)C1 (stereo partly drawn) [Example 40, Trans-4-[1-[[4-[(benzo[b]thiophen-3-ylcarbonyl)amino]-5-chloro-2-fluorophenyl]acetyl]-(4S)-(2-methylpyrrolidin-1-yl)-(2S)-pyrrolidinylmethoxy]cyclohexanecarboxylic acid] | 2 nM | 9.1 nM
17 | CCOC[C@@H]1CCCN1[C@H]1C[C@@H](CO[C@H]2CC[C@H](C(=O)O)CC2)N(C(=O)Cc2cc(Cl)c(NC(=O)c3csc4ccccc34)cc2Cl)C1 [Example 43, Trans-4-[1-[[4-[(benzo[b]thiophen-3-ylcarbonyl)amino]-2,5-dichlorophenyl]acetyl]-(4S)-[(2S)-ethoxymethylpyrrolidin-1-yl]-(2S)-pyrrolidinylmethoxy]cyclohexanecarboxylic acid] | 2 nM | 38 nM

Source: patent publication US8129366B2, “VLA-4 inhibitory drug” (Daiichi Sankyo Company, Limited, priority 2005, dated 2012)
